Our source for the TGI values is PubChem BioAssay (NCI).

Some test systems named below: 786-0 renal; HCT-15 colon; HT29 colon; LOX IMVI melanoma; MDA-N; RPMI-8226 leukemia.
Test in all cases: NCI anticancer screen, dose series, 48 h

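Results reflect a 48-hour exposure of cells in 96-well plates to compound at five concentrations. TGI: concentration producing complete growth inhibition.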

Turning to `Cc1cc2c(cc1C)[n+](=O)c(C(=O)N1CCN(c3ccc([N+](=O)[O-])cc3)CC1)c(C)n2[O-]`, the TGI is 34.8 µM with 786-0 renal; greater than 100 µM in the experiment on HCT-15 colon; greater than 100 µM in the experiment with HT29 colon; greater than 100 µM in the experiment with LOX IMVI melanoma; greater than 100 µM with MDA-N; greater than 100 µM in the experiment with RPMI-8226 leukemia.
As for `CCN(CC)Cc1nc(C2CCC([N+](=O)[O-])O2)no1` (configuration not stated), the TGI in the experiment on 786-0 renal was greater than 100 µM; in the experiment with HCT-15 colon, 38.1 µM; in the experiment with HT29 colon, 44.5 µM; with LOX IMVI melanoma, greater than 100 µM; with MDA-N, 37.5 µM; in the experiment on RPMI-8226 leukemia, greater than 100 µM.
For `CN(C)c1ccc(/C=C(\NC(=O)c2ccccc2)C(=O)Nc2ccccc2C(=O)O)cc1`, the TGI with 786-0 renal, in the experiment with HCT-15 colon, with HT29 colon, with LOX IMVI melanoma, with MDA-N and in the experiment on RPMI-8226 leukemia was greater than 100 µM throughout.
Turning to `CC1C/C(=N\N(C)C)C(C#N)(C#N)C1(C#N)C#N` (configuration not stated), the TGI was 14.6 µM in the experiment on 786-0 renal; 21.1 µM with HCT-15 colon; 18.7 µM in the experiment with HT29 colon; 19.7 µM with LOX IMVI melanoma; 33 µM in the experiment on MDA-N; 25.5 µM in the experiment with RPMI-8226 leukemia.
As for `Cc1ccc2c(=O)c(-c3nnc(N)s3)c[nH]c2n1`, the TGI in the experiment with 786-0 renal, in the experiment with HCT-15 colon, in the experiment on HT29 colon, in the experiment with LOX IMVI melanoma, in the experiment with MDA-N and in the experiment with RPMI-8226 leukemia was greater than 100 µM each time.
As to `Cc1ccc(S(=O)(=O)Oc2ccc(OS(=O)(=O)c3ccc(C)cc3)c3c2C(=O)c2ccccc2C3=O)cc1`, the TGI in the experiment with 786-0 renal, with HCT-15 colon, in the experiment with HT29 colon, with LOX IMVI melanoma and with MDA-N was greater than 100 µM throughout.
For the compound `C=C1CC(Cn2cc(C)c(=O)[nH]c2=O)(c2ccc(-c3ccccc3)cc2)OC1=O` (configuration not stated), the TGI with 786-0 renal worked out at 2.22 µM; in the experiment with HCT-15 colon it was 3.72 µM; with HT29 colon, 2.42 µM; in the experiment with LOX IMVI melanoma it was 3.49 µM; with MDA-N it was 2.75 µM; in the experiment on RPMI-8226 leukemia it was 1.9 µM.
`CCOC(=O)c1cccc([N+](=O)[O-])c1N`: the TGI with 786-0 renal, in the experiment on HCT-15 colon, in the experiment on HT29 colon, in the experiment with LOX IMVI melanoma, in the experiment on MDA-N and with RPMI-8226 leukemia was greater than 100 µM in each case.
As for `CCN1CC2=C(NC(=S)NC2c2cc(OC)c(OC)c(OC)c2)/C(=C/c2cc(OC)c(OC)c(OC)c2)C1` (configuration not stated), the TGI in the experiment on 786-0 renal was greater than 100 µM; in the experiment with HCT-15 colon it was greater than 100 µM; with HT29 colon, greater than 100 µM; in the experiment with LOX IMVI melanoma, greater than 100 µM; in the experiment with MDA-N it was greater than 100 µM; with RPMI-8226 leukemia, 42.9 µM.
For the compound `COc1ccc(N[C@H](CS(=O)c2ccc(C)cc2)C(F)(F)C(F)(F)F)cc1` (some centres not stated), the TGI with 786-0 renal, with HCT-15 colon, in the experiment on HT29 colon, in the experiment with LOX IMVI melanoma, in the experiment on MDA-N and in the experiment on RPMI-8226 leukemia was greater than 100 µM throughout.
Consider `CCCCNC(=O)Nc1c(C(N)=O)c2n(c1C(=O)OCC)CCCCC2`, for which the TGI in the experiment on 786-0 renal, with HCT-15 colon, with HT29 colon, in the experiment with LOX IMVI melanoma and in the experiment on RPMI-8226 leukemia was greater than 100 µM in each case.
Consider `CN(C)CC(CO)(CN(C)C)CN(C)C`, for which the TGI in the experiment on 786-0 renal, in the experiment with HCT-15 colon, in the experiment on HT29 colon, in the experiment with MDA-N and in the experiment with RPMI-8226 leukemia was greater than 100 µM in each case.
Turning to `CCCCCC(=O)OCC1(CO)C/C(=C\CC(C(C)C)C(C)C)C(=O)O1` (configuration not stated), the TGI with 786-0 renal was greater than 100 µM; in the experiment on HCT-15 colon it was greater than 100 µM; with HT29 colon it was greater than 100 µM; in the experiment on LOX IMVI melanoma, 70 µM; in the experiment on MDA-N it was greater than 100 µM.
Take `Cc1c[nH]c(C(=O)O)c1-c1ccc2c(-c3ccccc3)nc3ccccc3n12`: the TGI is greater than 100 µM in the experiment with 786-0 renal; 94.1 µM in the experiment on HCT-15 colon; 70.5 µM with HT29 colon; 63 µM in the experiment with LOX IMVI melanoma; 48.4 µM in the experiment on MDA-N.
With `COc1ccc(C(C2C(=O)N(C)C(=O)N(C)C2=O)C(F)(F)C(=O)N(C)C)cc1` (configuration not stated), the TGI in the experiment with 786-0 renal, in the experiment on HCT-15 colon, in the experiment with LOX IMVI melanoma and with RPMI-8226 leukemia was greater than 100 µM each time.
Take `CCn1c(=O)ccc2ccc(N(CCO)CCO)nc21`: the TGI with 786-0 renal, in the experiment with HCT-15 colon, in the experiment with HT29 colon, with MDA-N and in the experiment with RPMI-8226 leukemia was greater than 100 µM throughout.
With `C#CCOC(=O)C(N)CSSCC(N)C(=O)O` (configuration not stated), the TGI in the experiment on 786-0 renal, in the experiment with HCT-15 colon, in the experiment on LOX IMVI melanoma, in the experiment on MDA-N and with RPMI-8226 leukemia was greater than 100 µM in each case.
As for `O=c1cc(CC(O)(C(F)(F)Cl)C(F)(F)Cl)[nH]n1-c1ccccc1`, the TGI in the experiment with 786-0 renal, in the experiment with HCT-15 colon, with HT29 colon, in the experiment on LOX IMVI melanoma and with RPMI-8226 leukemia was greater than 100 µM in each case.
On to `Cc1ccc2c(c1)[nH]c(=S)n2C=C1C(=O)CC(C)(C)CC1=O`, for which the TGI in the experiment on 786-0 renal, in the experiment with HCT-15 colon, with HT29 colon, in the experiment on LOX IMVI melanoma and in the experiment on MDA-N was greater than 100 µM throughout.
`CN(C)CCCNc1nnc(NCCCN(C)C)c2c(=O)c3sccc3[nH]c12`: the TGI with 786-0 renal was greater than 49.1 µM; in the experiment on HCT-15 colon it was greater than 91.5 µM; with LOX IMVI melanoma, 54.4 µM; in the experiment with MDA-N, 14.9 µM; in the experiment with RPMI-8226 leukemia, 57.2 µM.
Regarding `C=C(C)[C@@]1(O)CCC[C@H]1NC(=O)OC(C)(C)C`, the TGI in the experiment with 786-0 renal, with HCT-15 colon, in the experiment on HT29 colon, with LOX IMVI melanoma and with MDA-N was greater than 100 µM in each case.
Take `COc1ccc(N2C(=O)/C(=C\c3cccc(Oc4ccccc4)c3)S(=O)(=O)C2c2ccccc2)cc1` (configuration not stated): the TGI in the experiment on 786-0 renal is 42.5 µM; in the experiment with HCT-15 colon it was greater than 100 µM; with LOX IMVI melanoma, greater than 100 µM; with MDA-N, 87.6 µM.
